The data set has as its system CCRIS mutagenicity, Ames/micronucleus/aberration tests. Nature of the data set: CCRIS mutagenicity studies.
Setting [1] is: Test System: AMES SALMONELLA TYPHIMURIUM, Strain/Indicator: TA98, Metabolic Activation: NONE, Method: PREINCUBATION
The mark [2] stands for this setting: Test System: AMES SALMONELLA TYPHIMURIUM, Strain/Indicator: TA100, Metabolic Activation: NONE, Method: PREINCUBATION
[3] abbreviates: Test System: AMES SALMONELLA TYPHIMURIUM, Strain/Indicator: TA100, Metabolic Activation: RAT, LIVER, S-9, PHENOBARBITAL AND 5,6-BENZOFLAVONE, Method: PREINCUBATION
[4] abbreviates: Test System: AMES SALMONELLA TYPHIMURIUM, Strain/Indicator: TA98, Metabolic Activation: NONE, Method: STANDARD PLATE.
The mark [5] stands for this setting: Test System: AMES SALMONELLA TYPHIMURIUM, Strain/Indicator: TA98, Metabolic Activation: RAT, LIVER, S-9, AROCLOR 1254, Method: STANDARD PLATE.
[6] abbreviates: Test System: AMES SALMONELLA TYPHIMURIUM, Strain/Indicator: TA100, Metabolic Activation: NONE, Method: STANDARD PLATE.
Where [7] appears, read: Test System: AMES SALMONELLA TYPHIMURIUM, Strain/Indicator: TA100, Metabolic Activation: RAT, LIVER, S-9, AROCLOR 1254, Method: STANDARD PLATE.
Where [8] appears, read: Test System: AMES SALMONELLA TYPHIMURIUM, Strain/Indicator: TA1535, Metabolic Activation: NONE, Method: STANDARD PLATE.
The mark [9] stands for this setting: Test System: AMES SALMONELLA TYPHIMURIUM, Strain/Indicator: TA1535, Metabolic Activation: RAT, LIVER, S-9, AROCLOR 1254, Method: STANDARD PLATE.
The mark [10] stands for this setting: Test System: AMES SALMONELLA TYPHIMURIUM, Strain/Indicator: TA1537, Metabolic Activation: NONE, Method: STANDARD PLATE.
The mark [11] stands for this setting: Test System: AMES SALMONELLA TYPHIMURIUM, Strain/Indicator: TA1537, Metabolic Activation: RAT, LIVER, S-9, AROCLOR 1254, Method: STANDARD PLATE.
Setting [12] is: Test System: AMES SALMONELLA TYPHIMURIUM, Strain/Indicator: TA1538, Metabolic Activation: NONE, Method: STANDARD PLATE.
Setting [13] is: Test System: AMES SALMONELLA TYPHIMURIUM, Strain/Indicator: TA1538, Metabolic Activation: RAT, LIVER, S-9, AROCLOR 1254, Method: STANDARD PLATE.

Calls of active or inactive are those of the source. The rule behind the calls is not given here.

As for `Clc1ccc2ccccc2n1`, the mutagenic call is “inactive; negative” under setting [1]; “inactive; negative” (Test System: AMES SALMONELLA TYPHIMURIUM, Strain/Indicator: TA98, Metabolic Activation: RAT, LIVER, S-9, Method: PREINCUBATION); “inactive; negative” under setting [2]; “inactive; negative” under setting [3]; “inactive; negative” (Test System: AMES SALMONELLA TYPHIMURIUM, Strain/Indicator: TA100, Metabolic Activation: RAT, LIVER, S-9, Method: PREINCUBATION).

Consider `O=S(=O)(O)C1C(O)c2c(cc3ccc4cccc5ccc2c3c45)C(O)C1O` (stereo not drawn), for which the mutagenic call under setting [1] was “inactive; negative”.

Consider `Cc1cc2c3c(ccc2c2ccccc12)[C@@H](O)[C@H](O)[C@@H]1O[C@H]31`, for which the mutagenic call under setting [2] is “inactive; negative”.

For the compound `Fc1cc2cccnc2c2cccnc12`, the mutagenic call under setting [3] was “active; positive”.

Take `C[C@H](CCC(=O)NCCS(=O)(=O)O)[C@H]1CC[C@H]2[C@@H]3C[C@H](O)[C@@H]4C[C@H](O)CC[C@]4(C)[C@H]3CC[C@]12C`: the mutagenic call by setting is: under setting [4], “inactive; negative”; under setting [5], “inactive; negative”; under setting [6], “inactive; negative”; under setting [7], “inactive; negative”; under setting [8], “inactive; negative”; under setting [9], “inactive; negative”. The mutagenic call reads like this: under setting [10], “inactive; negative”; under setting [11], “inactive; negative”; under setting [12], “inactive; negative”; under setting [13], “inactive; negative”.

Regarding `Nc1ccc(I)cc1Cl`, the mutagenic call is “active; positive (structural changes). weak response” (End Point: In vitro chromosomal aberrations, Test System: Chinese hamster lung (CHL/IU) cells, Metabolic Activation: Rat, Liver, S9, Phenobarbital and 5,6-benzoflavone); “inactive; negative” (Test System: Ames Salmonella typhimurium, Strain/Indicator: TA98, Metabolic Activation: None, Method: Preincubation); “inactive; negative” (Test System: Ames Salmonella typhimurium, Strain/Indicator: TA98, Metabolic Activation: Rat, Liver, S9, Sodium phenobarbital and 5,6-benzoflavone (10%), Method: Preincubation); “inactive; negative” (Test System: Ames Salmonella typhimurium, Strain/Indicator: TA100, Metabolic Activation: None, Method: Preincubation); “inactive; negative” (Test System: Ames Salmonella typhimurium, Strain/Indicator: TA1535, Metabolic Activation: None, Method: Preincubation); “inactive; negative” (Test System: Ames Salmonella typhimurium, Strain/Indicator: TA1535, Metabolic Activation: Rat, Liver, S9, Sodium phenobarbital and 5,6-benzoflavone (10%), Method: Preincubation). For the same compound, the mutagenic call by setting is: (Test System: Ames Salmonella typhimurium, Strain/Indicator: TA1537, Metabolic Activation: None, Method: Preincubation) “inactive; negative”; (Test System: Ames Salmonella typhimurium, Strain/Indicator: TA1537, Metabolic Activation: Rat, Liver, S9, Sodium phenobarbital and 5,6-benzoflavone (10%), Method: Preincubation) “inactive; negative”; (Test System: E. coli, Strain/Indicator: WP2uvrA/pKM101, Metabolic Activation: None, Method: Preincubation) “inactive; negative”; (Test System: E. coli, Strain/Indicator: WP2uvrA/pKM101, Metabolic Activation: Rat, Liver, S9, Sodium phenobarbital and 5,6-benzoflavone (10%), Method: Preincubation) “inactive; negative”.

With `Nc1cc(C(F)(F)F)ccc1Cl`, the mutagenic call was “inactive; negative” under setting [4]; “inactive; negative” under setting [5]; “inactive; negative” under setting [6]; “inactive; negative” under setting [7]; “inactive; negative” under setting [8]; “inactive; negative” under setting [9]. Also, the mutagenic call was “inactive; negative” under setting [10], “inactive; negative” under setting [11], “inactive; negative” under setting [12] and “inactive; negative” under setting [13].

In the case of `CC(=O)OCc1ccccc1N=Nc1ccc(N(C)C)cc1`, the mutagenic call (Test System: AMES SALMONELLA TYPHIMURIUM, Strain/Indicator: TA98, Metabolic Activation: RAT, LIVER, S-9, POLYCHLORINATED BIPHENYLS, Method: PREINCUBATION) was “active; positive” and the mutagenic call (Test System: AMES SALMONELLA TYPHIMURIUM, Strain/Indicator: TA100, Metabolic Activation: RAT, LIVER, S-9, POLYCHLORINATED BIPHENYLS, Method: PREINCUBATION) is “active; positive”.

On to `CC(C)CCC[C@@H](C)[C@H]1CC[C@H]2[C@@H]3C=CC4(OO)C[C@@H](O)CC[C@]4(C)[C@H]3CC[C@]12C` (stereo partly drawn), for which the mutagenic call (Test System: AMES SALMONELLA TYPHIMURIUM, Strain/Indicator: TA1537, Metabolic Activation: NONE, Method: PREINCUBATION) was “active; positive”.

With `CC(Br)C(Br)COP(=O)(OCC(Br)C(C)Br)OCC(Br)C(C)Br` (stereo not drawn), the mutagenic call reads like this: (Test System: AMES SALMONELLA TYPHIMURIUM, Strain/Indicator: TA100, Metabolic Activation: RAT, LIVER, MICROSOMES, PHENOBARBITAL, Method: PREINCUBATION) “active; positive”; (Test System: AMES SALMONELLA TYPHIMURIUM, Strain/Indicator: TA100, Metabolic Activation: RAT, LIVER, MICROSOMES, Method: PREINCUBATION) “active; positive”.

Values taken from PubChem BioAssay AID1259407 (Chemical Carcinogenesis Research Information System (CCRIS), 2018).
